In patent US20230165835A1, “METHODS OF TREATING ACUTE LUNG INJURY USING EBSELEN” (SOUND PHARMACEUTICALS INC., priority 2020, published 2023):
“Also recorded” adds a separate entry of the source. Like-named read-outs stand apart in the source and are kept apart here.

How the values were obtained:
[1] = Solubility in aqueous solutions; conditions: 25° Celsius
[2] = mice; Longenecker et al.; cited from earlier work
[3] = Cystic fibrosis trial (IV tobramycin + SPI-1005 0/200/400/600 BID, 21 days): FEV1; assay type: in vivo, human
Procedure: (§1) Thirty of 80 participants were enrolled starting in January 2019. They were Cystic fibrosis patients ages 18-70 that had acute pulmonary exacerbation or acute respiratory infections that required treatment with IV tobramycin 10 mg/kg/d for 10-21 days. They were randomized into four groups (1:1:1:1) (0, 200, 400, or 600 BID) and treated for 21 days. There were four follow-up visits for safety (adverse events, spirometry, labs), and two follow-up visits for efficacy (audiometric and vestibular). The primary endpoint was a reduction in cochleotoxic change, and the secondary endpoints was a reduction in tinnitus or vertigo severity.

SARS-CoV-2 = assay: Reduction of SARS-CoV-2 viral load in Vero E6 cells (image based assay of Jin et al.); assay type: cell-based
[4] = Study 6.3: ebselen in mild to moderate COVID-19; assay type: in vivo, human; conditions: 400 to 600 mg BID for 14 to 21 days
[5] = mice; Gu et al.; cited from earlier work
[6] = Study 6.5: ebselen in moderate to severe COVID-19 at high risk of respiratory failure; assay type: in vivo, human; conditions: 400 to 600 mg BID up to 21 to 28 days
[7] = Cystic fibrosis trial Part 2 Intervention: tobramycin-induced ototoxicity; assay type: in vivo, human
Procedure: as §1

[8] = target: COVID-19 virus main protease (M^pro) (Severe acute respiratory syndrome coronavirus 2, UniProt P0DTD1); conditions: Jin et al.; cited from earlier work
[9] = Cystic fibrosis trial: sentinel Pk, plasma tobramycin levels (DDI); assay type: in vivo, human
[10] = Part 2 Intervention (1:1:1:1) pooled

O=c1c2ccccc2[se]n1-c1ccccc1 [ebselen, 2-phenyl-1,2-benzisoselenazol-3(2H)-one]
solubility in aqueous solutions [1]: slightly soluble
tinnitus and hyperacusis following amikacin-induced ototoxicity [2]: improvements in tinnitus and hyperacusis
change in lung functioning (FEV1) ([3]; 2 and 4 weeks, cystic fibrosis patients on IV tobramycin, versus Part 1 observation study): improvement in lung functioning (FEV1) at both 2 and 4 weeks; also recorded: improved relative FEV1% predicted at 2 and 4 weeks
FEV1 score Mean (SD), 2 Week ([3]; pooled 0/200/400/600 BID groups, baseline 46.87 (13.68), n 17): 48.53 (14.57)
FEV1 score Mean (SD), 4 Week ([3]; pooled 0/200/400/600 BID groups, baseline 46.87 (13.68), n 19): 52.68 (22.99)
EC50 (SARS-CoV-2; SARS-CoV-2, ebselen 100 nM to 1000 μM in DMSO or EtOH, remdesivir 1 nM to 10 μM, listed as ebselen (EtOH), read-out: EC50, reduction in viral load in Vero E6 cells): 10.9 µM
EC50 (SARS-CoV-2; Severe acute respiratory syndrome coronavirus 2, Vero C1008, SARS-CoV-2, ebselen 100 nM to 1000 μM in DMSO or EtOH, remdesivir 1 nM to 10 μM, read-out: EC50, reduction in viral load in Vero E6 cells): 21.3 µM
EC50 (SARS-CoV-2; Severe acute respiratory syndrome coronavirus 2, Vero C1008, Vero E6 cells, ebselen added in DMSO, read-out: EC50, inhibition of viral load): 21 µM
EC50 (SARS-CoV-2; Severe acute respiratory syndrome coronavirus 2, Vero C1008, Vero E6 cells, ebselen added in EtOH, read-out: EC50, inhibition of viral load): 11 µM
inhibition of viral load (FIGS. 1A-C) (SARS-CoV-2; in vitro kidney cell assay (Vero E6 cells)): inhibited viral load
respiratory status and progression to severe disease [4]: effective to improve in respiratory status and prevent progression to severe disease
protection against tobramycin-induced ototoxicity, auditory brainstem responses [5]: otoprotective and neuroprotective properties
time to clinical improvement (NIAID ordinal scale) [6]: effective to reduce time to at least a 2-grade improvement from baseline on the NIAID ordinal scale
ototoxic change versus Part 1 Observational study ([7]; 4 weeks after IV tobramycin treatment): lower levels of ototoxic change
% Responders (Bilateral), Conv + SRO [7, 10]: 29%
% Responders (Bilateral), Conventional [7, 10]: 5%
% Responders (Bilateral), DPOAE [7, 10]: 40%
% Responders (Bilateral), SRO [7, 10]: 21%
% Responders (Bilateral), WINT [7, 10]: 0%
% Responders (Unilateral), Conv + SRO [7, 10]: 29%
% Responders (Unilateral), Conventional [7, 10]: 5%
% Responders (Unilateral), DPOAE [7, 10]: 40%
% Responders (Unilateral), SRO [7, 10]: 37%
% Responders (Unilateral), WINT [7, 10]: 26%
% Responders, Conv + SRO [7, 10]: 57%
% Responders, DPOAE [7, 10]: 80%
% Responders, SRO [7, 10]: 58%
% Responders, TFI [7, 10]: 14%
% Responders, TL [7, 10]: 0%
% Responders, VSS [7, 10]: 5%
% Responders, WINT [7, 10]: 26%
% Responders, Conventional ([7]; Part 2 Intervention (1:1:1:1; 0, 200, 400, 600 BID pooled) with IV tobramycin, 4 weeks post-treatment): 10%
in vitro inhibition activity against M^pro protease [8]: modest in vitro inhibition activity
change in plasma tobramycin levels (DDI) [9]: no significant change in plasma tobramycin levels
